Results reported in patent US20170274006A1, “NASAL COMPOSITION COMPRISING MIXTURE OF HYALURONIC ACIDS AND SALINE SOLUTION” (SOFIBEL, priority 2014, published 2017).

System: HRV-A16
Assay: Anti-viral effect: inhibition of HRV-A16 replication on human airway epithelial cell culture
Format: cell-based, rhinovirus
Conditions: applied one hour before infection; change in viral RNA
Experimental: The example 1 composition is tested according to the test of evaluation of the potential activity against HRV-A16 (a rhinovirus responsible for colds) on fully differentiated human airway epithelial cells culture. The compositions are first applied before infection for one hour and the replication is carried out for 4 hours. 3 rinsing steps with the formulations are carried out. The remaining is collected and the RNA is dosed after cell lysis. The same collecting step is carried out 24 hours after and the same dosing step is carried out. The percentage expressed the changes in viral RNA, resulting in the % of inhibition of HRV-A16 replication, leading to the anti-viral efficacy. The tested composition is tested against rupintrivir (a known antiviral compound, providing an almost complete response).

## CCOC(=O)/C=C/[C@H](C[C@@H]1CCNC1=O)NC(=O)[C@@H](CC(=O)[C@@H](NC(=O)c1cc(C)on1)C(C)C)Cc1ccc(F)cc1 [Rupintrivir]
  Inhibition (%) of HRV-A16 replication: 99.62%
